Paper PMC12164071, “Lysine targeting covalent inhibitors of malarial kinase PfCLK3” (RSC Medicinal Chemistry, 2025)
Entries after “also recorded” stand apart in the source; their conditions may differ. Like-named read-outs stand apart in the source and are kept apart here.

How the values were obtained:
[1] = test system: PfCLK3 kinase domain (amino acid residues 334–699); test: Intact protein LC-MS for covalent adduct formation; assay type: binding, Plasmodium falciparum; details: for covalent adduct formation with PfCLK3 kinase domain: pH 7.4, 1:5 protein to compound ratio; for Relative Ratio, assignment apo / Relative Ratio, assignment holo (singly modified): compound 4 with C-terminal His-tag construct
Experimental: All compounds were then evaluated for covalent binding with PfCLK3 kinase domain (amino acid residues 334–699) using intact protein LC-MS (Fig. 3). Compounds were incubated at pH 7.4 in a 1 : 5 protein to compound ratio and analysed for covalent adduct formation using ESI TOF. […] Compounds 8 and 9 yielded a fully modified species at 43 957 Da, which can be attributed to the mass of the apo protein + the mass of the pyridinium product adduct. A minor mass (20–25%) of 44 378 Da was also detected, consistent with a doubly modified PfCLK3 kinase domain. This implies that cross reactivity with non-catalytic lysine residues is possible using the ethynyl benzaldehyde functionality, although a minor product. […]
dialyzing the protein into a final buffer containing 20 mM HEPES pH 7.4, 150 mM NaCl, 1 […]
PfCLK3 kinase domain (residues 334–699 with a C-terminal TEV cleavage sequence and His6-tag) was cloned into pFastBac vector and expressed and purified from Sf21 insect cells.
Cells were infected using P2 BIICs at an MOI of 0.2 and left to express for 72 h. Harvested cells were lysed and centrifuged before purifying using IMAC and SEC in a final buffer containing 20 mM HEPES pH 7.4, 150 mM NaCl, 1 mM TCEP, and 1 mM MgCl2.
Protein Mass Spectrometry
For intact protein mass spectrometry, compounds were incubated with a 5-fold excess of compound in buffer containing 20 mM HEPES pH 7.4, 150 mM NaCl, 1 mM TCEP, and 1 mM MgCl 2. 5 μL of kinase domain (1 mg/mL) was added to 25 μL of buffer before 0.12 μL of compound in a 10 mM DMSO stock was added to start the incubation. Samples were incubated at room temperature for 4 hours before 10 μL alliquots were analysed by LC-MS.
Intact protein LC-MS experiments were performed on a Synapt G2 Q-ToF instrument equipped with electrospray ionisation (Waters Corp., Manchester, UK). LC separation was achieved using an Acquity UPLC equipped with a reverse phase C4 Aeris Widepore 50 × 2.1 mm HPLC column (Phenomenex, CA, USA) and a gradient of 5–95% acetonitrile (0.1% formic acid) over 10 minutes was employed. Data analysis was performed using MassLynx v4.1 and deconvolution was performed using MaxEnt. […]

recombinant PfCLK3 = recombinant PfCLK3 (Plasmodium falciparum, UniProt Q8IIL5); test: TR-FRET kinase assay at Km ATP; assay type: biochemical; details: for IC50: 2 hour incubation, errors SD, N ≥ 3, * concentration response curve not complete; for kinase activity in words: Km ATP
Sequence of recombinant PfCLK3 (Q8IIL5 entry or part of it): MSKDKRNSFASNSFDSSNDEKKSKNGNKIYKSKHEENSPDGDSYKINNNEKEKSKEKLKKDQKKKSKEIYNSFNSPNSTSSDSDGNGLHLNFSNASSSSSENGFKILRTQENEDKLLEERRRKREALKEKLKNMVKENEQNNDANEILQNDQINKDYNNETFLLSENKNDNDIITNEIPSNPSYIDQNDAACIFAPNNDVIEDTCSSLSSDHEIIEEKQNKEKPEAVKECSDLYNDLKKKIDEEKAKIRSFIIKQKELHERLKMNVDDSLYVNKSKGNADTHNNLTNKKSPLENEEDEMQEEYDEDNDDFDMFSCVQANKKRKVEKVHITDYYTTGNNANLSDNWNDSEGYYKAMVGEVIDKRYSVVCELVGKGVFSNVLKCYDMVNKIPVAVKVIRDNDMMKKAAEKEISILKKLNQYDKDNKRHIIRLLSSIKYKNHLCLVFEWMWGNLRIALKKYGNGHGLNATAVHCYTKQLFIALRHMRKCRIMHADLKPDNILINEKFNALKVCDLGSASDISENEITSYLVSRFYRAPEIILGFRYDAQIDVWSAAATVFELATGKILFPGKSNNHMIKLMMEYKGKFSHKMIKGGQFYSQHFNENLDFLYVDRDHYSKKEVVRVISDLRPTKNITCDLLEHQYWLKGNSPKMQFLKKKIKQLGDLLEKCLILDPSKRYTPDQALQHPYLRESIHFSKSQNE
Experimental: All compounds were then evaluated against recombinant PfCLK3 using a TR-FRET kinase assay (Fig. 5). […]
Time Resolved Förster Resonance Energy Transfer (TR-FRET) Assay
Tr-FRET technology was used to determine kinase activity and Km ATP before profiling compounds. An 11-point half-log serial dilution of each test compound was prepared in 100% DMSO at 100X final test concentration. The dilution series were dispensed onto assay plates with liquid handling machinery using positive displacement. The final DMSO concentration in the assay was 1%. To obtain IC 50 values, full length recombinant PfCLK3 was prepared in 1X assay buffer (50 mM Hepes, 10 mM MgCl2, 1 mM EGTA, 0.01% Tween20, 2 mM TCEP) at a 2X concentration and incubated with compounds for 15 minutes at room temperature before addition of ULight-labelled peptide substrate (MBP) with Km ATP (at 2X concentration). The reaction was centrifuged and incubated for 2 hr at 37 °C. To stop the reaction, 1X Lance detection buffer was added with 1 nM Eu-labelled anti-MBP and 10 mM EDTA, and the reaction was incubated in the dark for 2 hr at room temperature to allow detection to take place. Plate output was read on a Pherastar FSX and data analysed in Graphpad Prism to a 4-parameter curve fit. […]

[2] = test system: 3D7 Plasmodium falciparum parasites; test: Ex vivo P. falciparum (3D7) inhibition assay; assay type: cell-based
Experimental: Compounds 4, 5, 8 and 9 were then assessed against 3D7 Plasmodium falciparum parasites (Fig. 6). […]
P. falciparum (3D7) culture and synchronisation.
P. falciparum cultures were maintained in RPMI-1640 media (Invitrogen) supplemented with 0.2% sodium bicarbonate, 0.5% Albumax II, 2.0 mM L-glutamine (Sigma) and 10 mg/L gentamycin. For continuous culture, the parasites were maintained at 4% haematocrit in human erythrocytes from 0+ blood donors and between 0.5 - 3% parasitaemia in an incubator at 37 °C, 5% carbon dioxide (CO 2), 5% oxygen (O 2) and 90% nitrogen (N 2). To obtain highly synchronous ring stage parasites for assays, cultures were double synchronised using Percoll and Sorbitol synchronisation. First, highly segmented schizonts were enriched by centrifugation on a 70% Percoll (GE Healthcare) cushion gradient. The Schizont pellet was collected and washed twice before fresh erythrocytes were added to a final haematocrit of 4%, and incubated for about 1-2 hours shaking continuously to allow merozoites egress and re-invasion of new erythrocytes. Residual schizonts were then removed by a second Percoll purification followed by treating the ring pellet with sorbitol to generate highly synchronous 1-2 hours old ring-stage parasites.
Ex vivo P. Falciparum (3D7) inhibition assay.
To determine the IC 50 of the molecules in parasites (P. falciparum 3D7) ex vivo, the molecules were diluted 1 in 3 from a starting concentration of 100 μM for 12 dilution points in triplicate. 50 μL of freshly diluted drugs, at twice the required final concentrations were aliquoted into black 96-well plates. To the compound plates, 50 μL of parasites prepared at 8% haematocrit at a parasitaemia (0.3 - 0.5%) were added and mixed by pipetting up and down several times giving a final culture volume of 100 μL at the required compound concentration (top concentration of 100 μM) and 4% haematocrit. To the ‘no compound’ control, growth media was added and uninfected erythrocytes were included on the plate as blank. The outer wells were filled with media to reduce evaporation from the experimental wells and the plates incubated for 72 hours (±2 hours) to allow the parasites sufficient time to re-invade before they are collected and frozen. For cellular washout studies, compound media was exchanged for compound-free media after 6 hours, and the parasites incubated for a […]

human (h)CLK2 = human (h)CLK2 (Homo sapiens, UniProt P49760); test: Selectivity kinase assay against hCLK2; assay type: biochemical; details: for IC50: errors SD, N ≥ 3
Sequence of human (h)CLK2 (P49760 whole entry): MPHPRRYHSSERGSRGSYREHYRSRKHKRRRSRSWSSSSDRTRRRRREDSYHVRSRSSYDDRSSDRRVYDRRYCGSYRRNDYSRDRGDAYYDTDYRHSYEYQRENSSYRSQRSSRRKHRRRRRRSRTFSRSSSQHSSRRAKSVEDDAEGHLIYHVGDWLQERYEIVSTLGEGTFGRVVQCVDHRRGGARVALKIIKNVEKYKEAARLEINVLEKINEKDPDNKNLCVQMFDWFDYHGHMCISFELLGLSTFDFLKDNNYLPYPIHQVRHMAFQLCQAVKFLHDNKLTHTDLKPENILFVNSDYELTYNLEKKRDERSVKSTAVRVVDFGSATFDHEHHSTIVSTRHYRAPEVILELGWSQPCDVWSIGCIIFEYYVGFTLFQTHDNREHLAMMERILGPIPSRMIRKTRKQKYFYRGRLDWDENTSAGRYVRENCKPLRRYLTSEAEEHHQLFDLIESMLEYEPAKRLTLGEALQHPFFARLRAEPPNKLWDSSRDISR
Text: Given this work aims to target a conserved residue, selectivity must be derived from the reversible ligand rather than the covalent interaction.

[3] = Human cell viability assay (resazurin); details: HepG2, 48 hours, errors SD, N ≥ 3
Experimental: Cytotoxicity was assessed in HepG2 cells to complement the selectivity evaluations (Fig. 7). […]
Human cell viability assay.
Mycoplasma tested HepG2 cells were cultured in Dulbecco’s Modified Eagle Medium
(DMEM) with 10% fetal bovine serum, 1% non-essential AA, 1% sodium pyruvate, 1% Pen-
strep and 100ug/mL Normocin. Cultures were incubated at 37 ℃, 5% CO2. Cells were
detached using 0.05% trypsin-EDTA. 500nL of drug compound dilutions, in triplicate, were
added to 384-well, black, clear bottom assay plates using a Mosquito liquid handling
machine. Assay plates, containing compound dilutions, were seeded at 5,000 cells/well and
incubated for 48 hours. 40uM final concentration resazurin, diluted in DPBS, was added to
the assay plates which were then incubated for 4 hours and analysed using a ClariostarTM
plate reader to measure fluorescence Intensity (545-20nm/600-40nm). 3 control compounds
were included on every assay plate, Tamoxifen, Puromycin and TCMDC-135051. Maximum
signal control was obtained from wells with DMSO only and minimum signal control with
Tamoxifen 100uM. These were used to normalise data and give percentage inhibition of
metabolic activity. Experiments were performed N=3 and normalised data was grouped and a
nonlinear regression curve with four parameters was plotted using GraphPad Prism,
generating activity data. […]

[4] = pH 7.4, 1:5 protein to compound, 4 hours room temperature
[5] = 3D7, Pf3D7 parasites, 72 hours, errors SD, N ≥ 3, read-out: EC50 (3D7)
[6] = 3D7, Pf3D7 parasites, 72 hours, errors SD, N ≥ 3, read-out: pEC50 (3D7) (converted)

Structure (SMILES) | covalent adduct formation with PfCLK3 kinase domain [1] | Relative Ratio, assignment apo [1, 4] | IC50 (recombinant PfCLK3; IC50 (apparent), Km ATP (5 μM)) | IC50 (recombinant PfCLK3; pIC50, Km ATP (5 μM)) | CC50 at 48 h ([3]; CC50 (HepG2)) | CC50 at 48 h ([3]; pCC50 (HepG2)) | other results
CCN(CC)Cc1ccc(OC)c(-c2cnc3[nH]cc(-c4ccc(O)c(C=O)c4)c3c2)c1 [Compound 5] | showed covalent adduct formation; also recorded: formed a covalent adduct with PfCLK3 | 68 | 19 ± 10 nM | 19.5 nM | 4740 ± 3180 nM | 2690 nM | partial covalent bond formation, modification ([1]; imine adduct): 32–60%; Relative Ratio, assignment holo (singly modified) [1, 4]: 32; EC50 [2, 5]: 3260 ± 1670 nM; EC50 [2, 6]: 3240 nM; IC50 (human (h)CLK2; read-out: pIC50 (hCLK2) (converted)): 11 nM; fold more potent against hCLK2 than parent S1 (human (h)CLK2; relative to S1): 20 fold
C=CS(=O)(=O)Nc1ccc(-c2c[nH]c3ncc(-c4cc(CN(CC)CC)ccc4OC)cc23)cc1 [Compound 11] | – | – | 892 nM | 891 nM | – | – | kinase activity in words (recombinant PfCLK3): poorly active, not reaching 100% inhibition at the highest concentration tested
C#Cc1ccc(-c2ccnc3[nH]c(-c4cc(CN(CC)CC)ccc4OC)cc23)cc1C=O [Compound 8] | showed covalent adduct formation; also recorded: formed a covalent adduct with PfCLK3 | – | 29 ± 3 nM | 28.8 nM | 12300 ± 2530 nM | 12300 nM | doubly modified PfCLK3 kinase domain, minor mass abundance ([1]; 44 378 Da species): 20–25%; Relative Ratio, assignment holo (doubly modified) [1, 4]: 25; Relative Ratio, assignment holo (singly modified) [1, 4]: 75; EC50 [2, 5]: 2270 ± 2890 nM; EC50 [2, 6]: 2290 nM; IC50 (human (h)CLK2; read-out: IC50 (hCLK2)): 69 ± 31 nM
CCN(CC)Cc1ccc(OC)c(-c2cnc3[nH]cc(-c4ccc(C=O)c(O)c4)c3c2)c1 [Compound 7] | unable to covalently bind the protein | 100 | 83 ± 42 nM | 83.2 nM | – | – | –
C=CC(=O)Nc1ccc(-c2c[nH]c3ncc(-c4cc(CN(CC)CC)ccc4OC)cc23)cc1 [Compound 13] | – | 100 | 1950 nM | 2000 nM | – | – | kinase activity in words (recombinant PfCLK3): significantly lower activity than all other analogues
C=CC(=O)Nc1ccc(-c2ccnc3[nH]c(-c4cc(CN(CC)CC)ccc4OC)cc23)cc1 [Compound 12] | – | 100 | – | – | – | – | –
CCN(CC)Cc1ccc(OC)c(-c2cc3c(-c4ccc(C=O)c(O)c4)ccnc3[nH]2)c1 [Compound 6] | unable to covalently bind the protein | 100 | 155 ± 19 nM | 155 nM | – | – | –
CCN(CC)Cc1ccc(OC)c(-c2cc3c(-c4ccc(C(=O)O)c(C(C)C)c4)ccnc3[nH]2)c1 [Compound 1, TCMDC-135051, reference compound] | – | – | 17 ± 3 nM | 17.4 nM | 2750 ± 580 nM | 2750 nM | EC50 ([2]; 3D7, 72 h, read-out: EC50 (3D7)): 266 ± 11 nM; EC50 ([2]; 3D7, 72 h, read-out: pEC50 (3D7) (converted)): 263 nM; IC50 (human (h)CLK2; IC50 (hCLK2)): 879 ± 325 nM; IC50 (human (h)CLK2; pIC50 (hCLK2)): 891 nM
CCN(CC)Cc1ccc(OC)c(-c2cnc3[nH]cc(-c4ccc(S(=O)(=O)F)cc4)c3c2)c1 [Compound 3] | – | 100 | 302 ± 33 nM | 302 nM | – | – | –
CCN(CC)Cc1ccc(OC)c(-c2cc3c(-c4ccc(S(=O)(=O)F)cc4)ccnc3[nH]2)c1 [Compound 2] | – | 100 | 83 ± 10 nM | 83.2 nM | – | – | –
